Reference: US12084680B2, “Methods for efficient derivation of human motor neurons from diverse spinal regions” (Wisconsin Alumni Research Foundation, priority 2016, dated 2024)

Tests used:
[1] = system: H9 hESCs; assay: Induction of NKX6.1+/PAX6+/OLIG2+ motor neuron progenitors from cervical neuromesoderm (flow cytometry, immunocytochemistry); format: cell-based, human
Experimental: To begin, we sequentially differentiated H9 hESCs in E6 media for 1 day, and FGF8b (200 ng/mL) for 1 day, and FGF8b and CHIR (3 μM) for 2 days to generate cervical neuromesoderm (FIGS. 5A-5B). Then, we screened the effects of CHIR, PM, and SHH treatment on NKX6.1^+/PAX6^+/OLIG2^+ motor neuron progenitor induction while transitioning to media containing 1 μM RA (FIGS. 5A-5D). Prior to the addition of RA, NKX6.1 was expressed in the cervical neuromesodermal state at day 4 (80±18% NKX6.1^+; data not shown), likely due to the CHIR-induced Wnt/β-catenin signaling (FIGS. 4A-4H). Transitioning the neuromesodermal progenitors to RA-containing media for 2 days induced HOXB4^+/HOXC6^+/HOXC9^−/HOXD10^−/PAX6^+ cervical neuroectoderm in all conditions (FIGS. 5B-5C), as expected. However, without co-activation of SHH signaling by PM or SHH, NKX6.1 expression was quickly lost by day 6 (97±1% PAX6^+, 17±3% NKX6.1^+) (FIG. 5C). […] To bolster this claim, we also analyzed the abundance of full-length GLI3 versus its truncated repressor form by western blot. […] Thus, Wnt/β-catenin signaling is necessary to induce ventral identity, but its continuous activation during OLIG2 induction by SHH signaling is detrimental to motor neuron differentiation, possibly due to activation of the GLI3 repressor.
Next, we tested conditions where CHIR was removed after transitioning to media containing RA (1 μM), PM (2 μM), and SHH (2 μg/mL) (FIGS. 5A-5C).
Since NKX6.1 is a pre-requisite to OLIG2 expression, we hypothesized that the Wnt/β-catenin signaling-dependent NKX6.1 expression levels may still be too low for efficient OLIG2^+ motor neuron progenitor induction. Therefore, the concentration of CHIR was boosted to 6 or 9 μM for 6 h immediately prior to transitioning to E6 medium containing RA, PM, and SHH without CHIR (FIG. 5A). The 9 μM CHIR boost followed by a transition to media containing 1 μM RA, 2 μM PM, and 2 μg/mL SHH yielded optimal motor neuron progenitor cultures with highly uniform NKX6.1, OLIG2, and PAX6 expression (96±1%, 85±9%, and 97±2%, respectively) (FIGS. 5C-5D).
hESCs were dissociated with accutase (Thermo Fisher Scientific) and reseeded at 1×10^5 cells/cm2 in E8 medium containing 10 μM ROCK inhibitor (Y27632; R&D Systems) on 6-well polystyrene tissue culture plates coated with 100 μg/mL poly-L-ornithine (PLO; Sigma) and 8 μg/well VTN-NC. The timelines and relevant growth factors/small molecules for all differentiation procedures are described in detail in the Results section and its accompanying figures. Cells were differentiated for various amounts of time in E6 medium containing the same insulin concentration as E8 medium as described above with varying combinations of soluble factors (product information and concentration ranges are found in Table 2). For neuromesodermal induction and HOX propagation, cells were sequentially cultured with FGF8b, CHIR99021 (CHIR), GDF11, and dorsomorphin (DM) as previously described. Briefly, to initiate the neuromesodermal state, cells were changed to E6 medium followed by addition of FGF8b (200 ng/ml) 24 h later. To generate cervical neuromesodermal progenitors, cells were washed with PBS, treated with accutase, and re-seeded in E6 medium containing 200 ng/ml FGF8b, 3 μM CHIR, and 10 μM Y27632 on VTN-NC-coated plates at a density of 1.5×10^5 cells/cm^2 for 48 h. To generate thoracic neuromesodermal progenitors, cells were passaged again after 72 h of CHIR treatment and re-seeded at different densities as described in the text.
Thoracic identity was reached after an additional 24 h. Then, to reach the lumbosacral level, cells were given 30 ng/ml GDF11 and 1 μM DM for an additional 48 h. For neuroectoderm induction and generation of OLIG2^+ progenitors, FGF8b was removed at the designated time points and the concentration of CHIR was increased for 6 h as described in the text, followed by a transition to media containing RA, PM, and SHH for a period of 48 h. […]

[2] = system: GLI3; assay: Western blot of full-length versus truncated repressor GLI3; format: cell-based, human; settings: cultures maintained in 3 and 6 μM CHIR during PM/SHH exposure, day 6
Experimental: To begin, we sequentially differentiated H9 hESCs in E6 media for 1 day, and FGF8b (200 ng/mL) for 1 day, and FGF8b and CHIR (3 μM) for 2 days to generate cervical neuromesoderm (FIGS. 5A-5B). Then, we screened the effects of CHIR, PM, and SHH treatment on NKX6.1^+/PAX6^+/OLIG2^+ motor neuron progenitor induction while transitioning to media containing 1 μM RA (FIGS. 5A-5D). Prior to the addition of RA, NKX6.1 was expressed in the cervical neuromesodermal state at day 4 (80±18% NKX6.1^+; data not shown), likely due to the CHIR-induced Wnt/β-catenin signaling (FIGS. 4A-4H). Transitioning the neuromesodermal progenitors to RA-containing media for 2 days induced HOXB4^+/HOXC6^+/HOXC9^−/HOXD10^−/PAX6^+ cervical neuroectoderm in all conditions (FIGS. 5B-5C), as expected. However, without co-activation of SHH signaling by PM or SHH, NKX6.1 expression was quickly lost by day 6 (97±1% PAX6^+, 17±3% NKX6.1^+) (FIG. 5C). […] To bolster this claim, we also analyzed the abundance of full-length GLI3 versus its truncated repressor form by western blot. […]
Cells were washed with cold PBS, harvested with accutase, and pelleted by centrifugation. […] Immunostained bands were detected using the SuperSignal West Pico Chemiluminescent Substrate kit (Thermo Fisher Scientific). […]

[3] = 9 μM CHIR boost 6 h, then 1 μM RA, 2 μM PM, 2 μg/mL SHH without CHIR, day 6
[4] = CHIR continued at 3 μM with RA, PM 2 μM, SHH 2 μg/mL, day 6
[5] = CHIR continued at 6 μM with RA, PM, SHH, day 6

Compound `Cc1c[nH]c(-c2cnc(NCCNc3ccc(C#N)cn3)nc2-c2ccc(Cl)cc2Cl)n1` [CHIR, CHIR99021] has an NKX6.1 expression [1, 3] of 96±1%, an OLIG2 expression [1, 3] of 85±9% and a PAX6 expression [1, 3] of 97±2%. For the same compound, the “NKX6.1 and PAX6/SOX2 neuroectoderm marker expression” value [1, 4] was “uniformly expressed”, the OLIG2 induction [1, 4] was “minimal OLIG2 was induced” and the OLIG2 induction [1, 5] was “OLIG2 was still not induced”. The PAX6 expression [1, 5] was “PAX6 expression was diminished”, the PAX7 detection [1, 5] was “no PAX7 was detected” and the “NKX6.1+ cells in cervical neuromesodermal state” value ([1]; FGF8b 200 ng/mL and CHIR 3 μM for 2 days, day 4, before RA) was 80±18%. For the same compound, the “GLI3 truncated repressor form level (western blot)” value [2] was “increased levels of the GLI3 truncated repressor form”.
